Measurements as given in PubChem BioAssay AID651592 (Sanford-Burnham Center for Chemical Genomics, 2012).

Key:
[1] = inhibitors of NFkB activation in CF airway cells, SAR follow-up, KKLEB cells, panel, IL8 HTRF, NFkB-GFP (AID 651592); conditions: PAF/TNFa-induced NFkB-GFP / IL8 HTRF, CF-PAF assay;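 note: immortalized cystic fibrosis airway epithelial KKLEB cells with an NF-kB GFP reporter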
IL8 = assay: as above; conditions: PAF/TNFa-induced NFkB-GFP / IL8 HTRF, mean of runs, mean IC50 across panel replicates
[2] = target: Interleukin-8 (Homo sapiens) (UniProt P10145); assay: as above; conditions: PAF/TNFa-induced NFkB-GFP / IL8 HTRF
[3] = mean of runs, mean IC50 across panel replicates

Interleukin-8 (Homo sapiens), sequence (P10145 whole entry, looked up): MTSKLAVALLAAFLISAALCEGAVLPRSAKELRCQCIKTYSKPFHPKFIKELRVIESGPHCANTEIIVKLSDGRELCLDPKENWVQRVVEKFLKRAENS

## O=C(Nc1ccc(N2CCN(C(=O)c3ccc(F)cc3)CC2)cc1)c1ccccn1
[1]; [3]
  IC50: > 66 µM
[1]; run 1
  IC50: > 66 µM
[1]; run 2
  IC50: > 66 µM
[1]; run 3
  IC50: > 66 µM
[1]; run 4
  IC50: > 66 µM
[1]; run 5
  IC50: > 66 µM
[1]; run 6
  IC50: > 66 µM
IL8; PAF-induced
  IC50: > 66 µM
IL8; TNFa-induced
  IC50: > 66 µM
[2]; IL8, PAF-induced, run 1
  IC50: > 66 µM
[2]; IL8, PAF-induced, run 2
  IC50: > 66 µM
[2]; IL8, PAF-induced, run 3
  IC50: > 66 µM
[2]; IL8, PAF-induced, run 4
  IC50: > 66 µM
[2]; IL8, PAF-induced, run 5
  IC50: > 66 µM
[2]; IL8, PAF-induced, run 6
  IC50: > 66 µM
[2]; IL8, TNFa-induced, run 1
  IC50: > 66 µM
[2]; IL8, TNFa-induced, run 2
  IC50: > 66 µM
[2]; IL8, TNFa-induced, run 3
  IC50: > 66 µM
[2]; IL8, TNFa-induced, run 4
  IC50: > 66 µM
[2]; IL8, TNFa-induced, run 5
  IC50: > 66 µM
[2]; IL8, TNFa-induced, run 6
  IC50: > 66 µM

## O=C(Nc1ccc(N2CCN(C(=O)c3ccccc3Cl)CC2)cc1)c1cc(Br)cc(Br)c1
[1]; [3]
  IC50: > 66 µM
[1]; run 1
  IC50: > 66 µM
[1]; run 2
  IC50: > 66 µM
[1]; run 3
  IC50: > 66 µM
[1]; run 4
  IC50: > 66 µM
[1]; run 5
  IC50: > 66 µM
[1]; run 6
  IC50: > 66 µM
IL8; PAF-induced
  IC50: > 66 µM
IL8; TNFa-induced
  IC50: > 66 µM
[2]; IL8, PAF-induced, run 1
  IC50: > 66 µM
[2]; IL8, PAF-induced, run 2
  IC50: > 66 µM
[2]; IL8, PAF-induced, run 3
  IC50: > 66 µM
[2]; IL8, PAF-induced, run 4
  IC50: > 66 µM
[2]; IL8, PAF-induced, run 5
  IC50: > 66 µM
[2]; IL8, PAF-induced, run 6
  IC50: > 66 µM
[2]; IL8, TNFa-induced, run 1
  IC50: > 66 µM
[2]; IL8, TNFa-induced, run 2
  IC50: > 66 µM
[2]; IL8, TNFa-induced, run 3
  IC50: > 66 µM
[2]; IL8, TNFa-induced, run 4
  IC50: > 66 µM
[2]; IL8, TNFa-induced, run 5
  IC50: > 66 µM
[2]; IL8, TNFa-induced, run 6
  IC50: > 66 µM

## O=C(Nc1ccc(N2CCN(C(=O)c3ccccc3Cl)CC2)cc1)c1ccncc1
[1]; [3]
  IC50: 11.8 µM
[1]; run 1
  IC50: 7.29 µM
[1]; run 2
  IC50: 8.71 µM
[1]; run 3
  IC50: 9.34 µM
[1]; run 4
  IC50: 5.23 µM
[1]; run 5
  IC50: 11.3 µM
[1]; run 6
  IC50: 29 µM
IL8; PAF-induced
  IC50: 35.5 µM
IL8; TNFa-induced
  IC50: 55.5 µM
[2]; IL8, PAF-induced, run 1
  IC50: > 66 µM
[2]; IL8, PAF-induced, run 2
  IC50: > 66 µM
[2]; IL8, PAF-induced, run 3
  IC50: > 66 µM
[2]; IL8, PAF-induced, run 4
  IC50: 1.15 µM
[2]; IL8, PAF-induced, run 5
  IC50: 3.67 µM
[2]; IL8, PAF-induced, run 6
  IC50: 10 µM
[2]; IL8, TNFa-induced, run 1
  IC50: > 66 µM
[2]; IL8, TNFa-induced, run 2
  IC50: > 66 µM
[2]; IL8, TNFa-induced, run 3
  IC50: 2.69 µM
[2]; IL8, TNFa-induced, run 4
  IC50: > 66 µM
[2]; IL8, TNFa-induced, run 5
  IC50: > 66 µM
[2]; IL8, TNFa-induced, run 6
  IC50: > 66 µM

## O=C(Nc1ccc(N2CCN(C(=O)c3ccc(F)cc3)CC2)cc1)c1ccccc1
[1]; [3]
  IC50: > 66 µM
[1]; run 1
  IC50: > 66 µM
[1]; run 2
  IC50: > 66 µM
[1]; run 3
  IC50: > 66 µM
[1]; run 4
  IC50: > 66 µM
[1]; run 5
  IC50: > 66 µM
[1]; run 6
  IC50: > 66 µM
IL8; PAF-induced
  IC50: > 66 µM
IL8; TNFa-induced
  IC50: > 66 µM
[2]; IL8, PAF-induced, run 1
  IC50: > 66 µM
[2]; IL8, PAF-induced, run 2
  IC50: > 66 µM
[2]; IL8, PAF-induced, run 3
  IC50: > 66 µM
[2]; IL8, PAF-induced, run 4
  IC50: > 66 µM
[2]; IL8, PAF-induced, run 5
  IC50: > 66 µM
[2]; IL8, PAF-induced, run 6
  IC50: > 66 µM
[2]; IL8, TNFa-induced, run 1
  IC50: > 66 µM
[2]; IL8, TNFa-induced, run 2
  IC50: > 66 µM
[2]; IL8, TNFa-induced, run 3
  IC50: > 66 µM
[2]; IL8, TNFa-induced, run 4
  IC50: > 66 µM
[2]; IL8, TNFa-induced, run 5
  IC50: > 66 µM
[2]; IL8, TNFa-induced, run 6
  IC50: > 66 µM

## Cc1ccc(CNCc2cc3c(C(C)(C)C)nn(-c4ccccc4)c3[nH]c2=O)cc1
[1]; [3]
  IC50: 60 µM
[1]; run 1
  IC50: > 66 µM
[1]; run 2
  IC50: > 66 µM
[1]; run 3
  IC50: > 66 µM
[1]; run 4
  IC50: > 66 µM
[1]; run 5
  IC50: > 66 µM
[1]; run 6
  IC50: 30.1 µM
IL8; PAF-induced
  IC50: 14.6 µM
IL8; TNFa-induced
  IC50: > 66 µM
[2]; IL8, PAF-induced, run 1
  IC50: 7.97 µM
[2]; IL8, PAF-induced, run 2
  IC50: 12.8 µM
[2]; IL8, PAF-induced, run 3
  IC50: 14.6 µM
[2]; IL8, PAF-induced, run 4
  IC50: 16.6 µM
[2]; IL8, PAF-induced, run 5
  IC50: 17 µM
[2]; IL8, PAF-induced, run 6
  IC50: 18.6 µM
[2]; IL8, TNFa-induced, run 1
  IC50: > 66 µM
[2]; IL8, TNFa-induced, run 2
  IC50: > 66 µM
[2]; IL8, TNFa-induced, run 3
  IC50: > 66 µM
[2]; IL8, TNFa-induced, run 4
  IC50: > 66 µM
[2]; IL8, TNFa-induced, run 5
  IC50: > 66 µM
[2]; IL8, TNFa-induced, run 6
  IC50: > 66 µM

## O=C(Nc1ccc(N2CCN(C(=O)c3ccccc3Cl)CC2)cc1)c1ccccc1
[1]; [3]
  IC50: 4.12 µM
[1]; run 1
  IC50: 3.91 µM
[1]; run 2
  IC50: 4.12 µM
[1]; run 3
  IC50: 4.31 µM
[1]; run 4
  IC50: < 10 µM
[1]; run 5
  IC50: < 10 µM
[1]; run 6
  IC50: < 10 µM
IL8; PAF-induced
  IC50: 29.9 µM
IL8; TNFa-induced
  IC50: 45.5 µM
[2]; IL8, PAF-induced, run 1
  IC50: > 66 µM
[2]; IL8, PAF-induced, run 2
  IC50: > 66 µM
[2]; IL8, PAF-induced, run 3
  IC50: 16.7 µM
[2]; IL8, PAF-induced, run 4
  IC50: < 10 µM
[2]; IL8, PAF-induced, run 5
  IC50: < 10 µM
[2]; IL8, PAF-induced, run 6
  IC50: 10.6 µM
[2]; IL8, TNFa-induced, run 1
  IC50: > 66 µM
[2]; IL8, TNFa-induced, run 2
  IC50: > 66 µM
[2]; IL8, TNFa-induced, run 3
  IC50: > 66 µM
[2]; IL8, TNFa-induced, run 4
  IC50: > 66 µM
[2]; IL8, TNFa-induced, run 5
  IC50: > 66 µM
[2]; IL8, TNFa-induced, run 6
  IC50: 8.88 µM
